Measured values from patent US20200061076A1, “METHODS OF TREATING LEUKODYSTROPHIES” (Ramot at Tel-Aviv University Ltd., priority 2017, published 2020).

What was measured:
Mut MEFs [1] = assay: Cell survival assay, Crystal violet staining, Mut MEFs; assay type: cell-based, mouse; conditions: for Survival (%) ± SEM Mut MEFs: 24 hours, untreated cells set to 100%
Procedure: (§1) Cells were seeded on 96-wells plate at a density of 5000 cells per well. Astrocytes were seeded following coating with 0.001% PDL.

Mut MEFs [2] = assay: JC1 staining of intact and damaged mitochondria (mitochondrial membrane potential); assay type: cell-based, mouse; conditions: Mut MEFs, 10 μM; for effect on mitochondrial health (JC1, intact and damaged mitochondria): 24 hours (FIG. 14C)
Procedure: Mut MEFs were treated or not for 6 hours with the indicated concentrations of p8G5 (blue), pre084 (purple), or NE-100 (yellow), washed and stained with Hoechst and JC1 for 30 minutes followed by image acquisition using In-Cell-Analyzer-2000. Shown is the % of red/green JC1 integrated intensity per cell relative to that in untreated WT cells of 2-4 independent experiments.
Following, the cells were washed, stained with Hoechst and JC-1 fluorescent dyes for 30 minutes, and subjected to image acquisition using In-Cell-Analyzer-2000. Shown is cellular content of damaged mitochondria (JC1 green channel, red bars), intact mitochondria (JC1 red channel, green bars) and damaged to intact mitochondria ratio (blue bars). Values of control (vehicle treated) cells was set to 100%.
Mut MEFs were treated with the indicated compounds at 10 μM for 24 hours followed by staining with fluorogenic dyes and image-based single-cell analysis. Shown is average effect on ROS level from at least 3-independent experiments ±SEM. […] Mut MEFs were incubated or not for 24 hours with 10 μM of the indicated compound, washed and stained with Crystal Violet. […] Mut MEFs were incubated or not for 24 hours with 10 μM of the indicated compound, washed and stained with JC1 and Hoechst followed by image-based single-cell analysis. Values of untreated cells were set as 100%. Shown is average of at least 3 independent experiments for each parameter compared to its matching control ±SEM. * p<0.05. Putative targets are indicated.
Mut MEFs were incubated or not for 24 hours with 10 μM of the indicated compounds, washed and stained with Hoechst and JC1 followed by image-based single-cell analysis. […] Mut MEFs were incubated or not with the indicated concentrations of the indicated compounds for 2 hours followed by addition of 50 ng/ml Tunicamycin (Tun) for additional 22 hours, stained with Crystal Violet followed by measurement of absorbance at 570 nm.
MEFs were seeded on 1% gelatin-coated 96-wells plate at a density of 5000 cells per well. 24 hours post-plating the cells were incubated with the tested compounds for additional 24 hours. Several DMSO-treated cells (control) were included in each plate at different locations. Following, the cells were stained by addition of fluorogenic dyes for further 30 minutes incubation at 37° C. […] CellROX was used together with Hoechst and CFSE; JC1 was used together with Hoechst. Cells were washed with Hank's balanced salt solution (HBSS) which was used for images acquisition using IN Cell Analyzer 2000 (GE Healthcare, Pitsburgh, Pa., USA). IN Cell Developer Toolbox 1.9.1 software (GE Healthcare) was used for analysis which included cells segmentation using Hoechst and/or CFSE signals. For analysis of JC1 staining, integrated intensity of green and red emissions were used for detection of damaged and intact mitochondria, respectively.

[3] = system: Hedgehog signaling pathway; assay: Luciferase activity assay in Shh-LIGHT2 cells (Gli1-controlled Firefly / constitutive Renilla); assay type: cell-based; conditions: for Firefly/Renilla luciferase expression (Hedgehog activation): absence of SAG, 24 hours (FIG. 11A)
Procedure: Following lysis, luminescence was measured using the Dual Luciferase assay kit (Promega) followed by Firefly/Renilla luciferase ratio calculation for each treatment. Shown is average Firefly/Renilla luciferase activity ±SD of 3 independent experiments. *p<0.04. […] RNA was extracted from brains of P18 and P21 Mut and WT mice. cDNA was prepared by reverse transcription and subjected to qPCR using primers specific to Gli1 and GAPDH (SEQ ID NOs: 1-2 and 3-4, respectively). Relative quantity (RQ) was calculated by the ΔΔCt method. * p<0.02 [vs control (FIG. 11A) or vs SAG treated cells (FIG. 11B)].
Shh-LIGHT2 cells were seeded at a density of 10,000 cells per well in a 96-wells plate in growing medium. 24 hours post-plating the cells were incubated for additional 24 hours with the tested compounds in low serum media (0.5%) without G418 and Zeocin. Following lysis, Firefly and Renilla luminescence was measured using the Dual Luciferase assay kit (Promega) and a Veritas microplate luminometer (Turner Biosystems).
To test if p8C10 (H5), p8G7 (H9) and p9E6 (H15) compounds that were identified in the screen indeed affect Hedgehog signaling, SHH-lightII cells which stably express an inducible Firefly-Luciferase reporter gene under the control of Gli1 (a read-out of Hedgehog activation) and constitutive Renilla-Luciferase for normalization purposes (Taipale et al. 2000) were used. […] Therefore, p9E6 was identified as an agonist. SHH activation is required for the first steps of oligodendrocyte differentiation, while a subsequent decrease in Hedgehog activity is needed for complete differentiation and myelin production (Bouslama-Oueghlani et al. 2012) and re-myelination (Samanta et al. 2015).

Mut astrocytes = assay: Cell survival assay, Crystal violet staining, Mut astrocytes; assay type: cell-based, mouse; conditions: 24 hours, untreated cells set to 100%
Procedure: as §1

WT astrocytes = assay: Cell survival assay, Crystal violet staining, WT astrocytes; assay type: cell-based, mouse; conditions: 24 hours, untreated cells set to 100%
Procedure: as §1

Mut MEFs [4] = assay: Oxygen consumption (Seahorse XF Cell Mito Stress Test), MEFs; assay type: cell-based, mouse; conditions: 6 hours, normalized to biomass (FIGS. 7A-B)
Procedure: Mut MEFs were treated or not for 6 hours with the indicated concentrations of the indicated Sig-1R binders. Oxygen consumption was measured in a XF96 Extracellular Flux Analyzer using the Seahorse XF Cell Mito Stress Test Kit. The Basal respiration (FIG. 7A) and ATP-linked respiration (FIG. 7B) data were normalized to biomass as determined by Crystal Violet staining.
Mut MEFs were treated or not for 6 hours with the indicated concentrations of the indicated Sig-1R binders. Oxygen consumption was measured in a XF96 Extracellular Flux Analyzer using the Seahorse XF Cell Mito Stress Test Kit. The Basal respiration (FIG. 8A), ATP-linked respiration (FIG. 8B) and maximal respiration (FIG. 8C) data was normalized to mtDNA content as detailed in FIG. 2.
The data were normalized to cell number, obtained by Crystal Violet staining, or to mtDNA content.

Mut MEFs [5] = assay: TMRE staining, flow cytometry; assay type: cell-based, mouse; conditions: all concentrations, 6 hours (FIG. 5A)
Procedure: Mut MEFs were treated or untreated with the indicated concentrations of the indicated Sig-1R binders for 6 hours, stained by TMRE for 30 minutes and analyzed by flow cytometry. Shown are flow cytometry histograms and bar graphs representing % mean TMRE fluorescence intensity relative to non-treated WT cells of a representative experiment.
MEFs were seeded at a density of 4×10^4 cells per well in a 24-wells plate. 24 hours post-plating the cells were incubated with the tested compounds for additional 6 hours followed by staining with 200 nM Tetra-Methyl-Rhodamine-Ethyl esterperchlorate (TMRE) (Abcam) for 30 minutes at 37° C. Cells were removed by trypsinyzation, washed and resuspended in PBS. 5-10×10^3 cells were analyzed by Stratedigm S1000EXi cell sorter and FlowJo software (FLOWJO, LLC, Ashland, Oreg., USA).

Mut MEFs [6] = assay: mtDNA quantification (qPCR of mitochondrial 12S rRNA and nuclear 18S rRNA genes), MEFs; assay type: cell-based, mouse; conditions: 0.1 μM, 1 μM or 10 μM, 6 hours (FIG. 2)
Procedure: DNA extracted from WT and Mut MEFs that were treated or not for 6 hours with 0.1 μM, 1 μM or 10 μM of p8G5 (blue), Pre084 (known SIG-1R agonist, purple), pridopidine (known SIG-1R agonists, green) or NE-100 (known SIG-1R antagonist, yellow) was subjected to qPCR analysis of mitochondrial 12S rRNA and nuclear 18S rRNA genes.

Mut MEFs [7] = assay: Survival under Tunicamycin-induced ER stress, Crystal Violet, MEFs; conditions: Mut MEFs, 30 μM, 50 ng/ml Tunicamycin 22 hours (FIG. 20B)
Procedure: Mut MEFs were treated or not for 24 hours with the indicated concentrations of the indicated Sig-1R binders in the presence of 0.1 μg/ml Tunicamycin (Tun) during the last 22 hours. Following, the cells were washed, fixated and stained with Crystal Violet (CV) followed by measurement of absorbance at 570 nm. Shown is average % of CV staining relative to cells not treated with tunicamycin nor Sig-1R binder ±SEM of 3 independent experiments. *p<0.03.
Following, the cells were washed, fixated and stained with Crystal Violet and absorbance at 570 nm was measured. Data is presented relative to cells of the corresponding genotype not treated with p8G5 nor Tunicamycin. Shown is average % of CV staining ±SEM of 3 independent experiments.
Mut MEFs were treated or not for 24 hours with 10, 20 or 30 μM of the indicated Sig-1R binders in the presence of 50 ng/ml Tunicamycin (Tun) during the last 22 hours. Following, the cells were washed, fixated and stained with Crystal Violet (CV) followed by measurement of absorbance at 570 nm. Shown is % of CV staining relative to cells not treated with tunicamycin nor Sig-1R binder ±SEM of 3 independent experiments, *p<0.05.
Mut MEFs were incubated or not with the indicated concentrations of the indicated compounds for 2 hours followed by addition of 50 ng/ml Tunicamycin (Tun) for additional 22 hours, stained with Crystal Violet followed by measurement of absorbance at 570 nm. Shown is average normalized to Tun-treated cells without any compound ±SEM of 3 independent experiments. * not significant; ** p<0.02; *** all values p<0.04.

COc1ccc(OC)c(N=Nc2nc3ccccc3n2C)c1 [Hit H16, 2-[(2,5-dimethoxyphenyl)diazenyl]-1-methyl-1H-benzimidazole]
cell viability / toxicity (crystal violet) (Mut MEFs [1]; Mut MEFs, 10 μM, 24 hours (FIG. 14B)): significant decrease in cell viability

Cc1cc(-c2ccccc2)nc2cc(C(=O)N3C(C)CCCC3C)nn12 (centres unmarked) [Hit H17, 2-[(2,6-dimethyl-1-piperidinyl)carbonyl]-7-methyl-5-phenylpyrazolo[1,5-a]pyrimidine]
effect on mitochondrial health (JC1, intact and damaged mitochondria) (Mut MEFs [2]): significant beneficial effect on mitochondrial health

O=C(Cc1ccccc1)N1CCN(c2ccccc2F)CC1 [Hit H9, 1-(2-fluorophenyl)-4-(phenylacetyl)piperazine]
Firefly/Renilla luciferase expression (Hedgehog activation) [3]: not able to activate the pathway | SAG-induced HH activity (Firefly/Renilla luciferase) ([3]; presence of SAG at 50 nM, 24 hours (FIG. 11B)): inhibited the SAG-induced HH activity

CCCN(CCC)CCc1ccc(OC)c(OCCc2ccccc2)c1 [NE100]
Survival (%) ± SEM Mut astrocytes (Mut astrocytes; 1 μM): 94 ± 4.7% | Survival (%) ± SEM Mut astrocytes (Mut astrocytes; 10 μM): 82 ± 4.3% | Survival (%) ± SEM Mut astrocytes (Mut astrocytes; 30 μM): 65 ± 2.2% | Survival (%) ± SEM WT astrocytes (WT astrocytes; 0.1 μM): 98 ± 1.8% | Survival (%) ± SEM WT astrocytes (WT astrocytes; 1 μM): 86 ± 1.1% | Survival (%) ± SEM WT astrocytes (WT astrocytes; 10 μM): 79 ± 2.2% | basal respiration and ATP-linked respiration per cell (OCR) (Mut MEFs [4]): negative effect | TMRE staining (mitochondrial membrane potential) (Mut MEFs [5]): negative effect on TMRE staining | Survival (%) ± SEM Mut MEFs (Mut MEFs [1]; 0.1 μM): 99 ± 2.1% | Survival (%) ± SEM Mut MEFs (Mut MEFs [1]; 1 μM): 98 ± 2.2% | Survival (%) ± SEM Mut MEFs (Mut MEFs [1]; 10 μM): 88 ± 3.5% | mitochondrial content in Mut MEFs (Mut MEFs [6]): increased mitochondrial content in a dose dependent manner

CN1CCN(CCCCCOc2ccccc2F)CC1 [Hit H8-8, 1-[5-(2-fluorophenoxy)pentyl]-4-methylpiperazine]
Survival (%) ± SEM Mut MEFs (Mut MEFs [1]; 10 μM): 101 ± 5.6% | Survival (%) ± SEM Mut MEFs (Mut MEFs [1]; 20 μM): 99 ± 11% | Survival (%) ± SEM Mut MEFs (Mut MEFs [1]; 30 μM): 90 ± 3.5%

Clc1cccc(OCCCCCN2CCOCC2)c1 [Hit H8-7, 4-[5-(3-chlorophenoxy)pentyl]morpholine]
cell survival following Tun-induced cell death (Mut MEFs [7]): most potent effect | mitochondrial health, damaged/intact organelle ratio (JC1) (Mut MEFs [2]; 24 hours (FIG. 20A)): at the top of the list | Survival (%) ± SEM Mut MEFs (Mut MEFs [1]; 10 μM): 98 ± 5.1% | Survival (%) ± SEM Mut MEFs (Mut MEFs [1]; 20 μM): 91 ± 4.7% | Survival (%) ± SEM Mut MEFs (Mut MEFs [1]; 30 μM): 88 ± 9.7%

C=CCn1c(C=Cc2ccccc2)nc2ccccc21 [Hit H15, 1-allyl-2-(2-phenylvinyl)-1H-benzimidazole]
effect on mitochondrial health (JC1, intact and damaged mitochondria) (Mut MEFs [2]): significant beneficial effect on mitochondrial health | Firefly/Renilla luciferase expression (Hedgehog activation) [3]: able to activate the Hedgehog signaling pathway

Cc1cc(C)cc(OCCCCCN2CCOCC2)c1 [Hit H8-1, 4-[5-(3,5-dimethylphenoxy)pentyl]morpholine]
Survival (%) ± SEM Mut MEFs (Mut MEFs [1]; 10 μM): 104 ± 2.7% | Survival (%) ± SEM Mut MEFs (Mut MEFs [1]; 20 μM): 103 ± 4.7% | Survival (%) ± SEM Mut MEFs (Mut MEFs [1]; 30 μM): 97 ± 3.9%
